These results are taken from patent US20240189318A1, “THERAPEUTIC REGIMENS OF AN INHIBITOR OF THE ENZYMATIC ACTIVITY OF BRG1 AND BRM” (FOGHORN THERAPEUTICS INC., priority 2021, published 2024).

Structures are written as SMILES. Where two headings read alike, the source gives them in different places.

For one data set, the target named is T1, BCRP (Homo sapiens, UniProt Q9UNQ0).
T1 construct: expressed in transfected cells; host or cells: MDCK-II
T1 sequence (Q9UNQ0 1-655): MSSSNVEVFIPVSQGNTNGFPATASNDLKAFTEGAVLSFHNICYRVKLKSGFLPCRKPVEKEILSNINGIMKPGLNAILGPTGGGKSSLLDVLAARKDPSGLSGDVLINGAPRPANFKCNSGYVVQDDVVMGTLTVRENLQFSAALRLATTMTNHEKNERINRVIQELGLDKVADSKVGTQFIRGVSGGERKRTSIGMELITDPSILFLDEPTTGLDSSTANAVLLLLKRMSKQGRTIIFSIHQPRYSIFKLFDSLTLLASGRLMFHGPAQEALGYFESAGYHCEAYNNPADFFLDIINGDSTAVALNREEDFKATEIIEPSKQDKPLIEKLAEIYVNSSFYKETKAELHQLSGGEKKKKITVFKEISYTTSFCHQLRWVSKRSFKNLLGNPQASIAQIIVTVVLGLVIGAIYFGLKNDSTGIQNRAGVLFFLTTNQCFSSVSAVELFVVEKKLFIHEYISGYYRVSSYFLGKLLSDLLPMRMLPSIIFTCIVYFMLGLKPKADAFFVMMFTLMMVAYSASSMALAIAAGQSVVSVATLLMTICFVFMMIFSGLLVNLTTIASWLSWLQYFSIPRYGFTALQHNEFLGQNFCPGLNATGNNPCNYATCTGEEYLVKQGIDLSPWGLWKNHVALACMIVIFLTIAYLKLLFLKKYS
The data set is described as follows: Transporter inhibition in MDCK-II cells, BCRP. The class given is in vitro ADME. Conditions: for IC50: probe prazosin 2 μM.

Another data set deals with 249 other ATPases. The data set can be described thus: Additional profiling: binding to other ATPases in cells.
The subject of a further data set is CYP2B6 mRNA. The data set can be described thus: CYP mRNA level (qRT-PCR) in cultured human hepatocytes, CYP2B6. Conditions: tested concentrations up to 50 nM.
The next data set concerns the target CYP2C19 (Homo sapiens, UniProt P33261). The data set is described as follows: Depletion by recombinant CYP enzyme, CYP2C19. It counts as in vitro ADME. The arrangement: from tissue; host or cells: pooled human liver microsomes. To be noted: recombinant 2C19.
The target of a further data set is CYP2D6 (Homo sapiens, UniProt P10635). The data set can be described thus: CYP enzyme inhibition in pooled human liver microsomes, CYP2D6. Conditions: for inhibition at 30 µM: human, microsomes, Enzyme activity (% inhibition), CYP2D6, probe Dextromethorphan.
The next data set concerns 3A4/5. The data set can be described thus: Selective chemical inhibition of compound of formula (I) depletion in human liver microsomes, CYP3A4/5. To be noted: reaction phenotyping. In general terms: Liver microsomes are a subcellular fraction often used to study metabolism.
Data set [1] relates to cultured human hepatocytes. The data set is described as follows: Cytotoxicity to cultured human hepatocytes (morphology, LDH release). Conditions: second study, 0.3 to 50 nM, 72 hours. In general terms: LDH in the medium is a marker of cell lysis.

CYP2D6, sequence (P10635 whole entry): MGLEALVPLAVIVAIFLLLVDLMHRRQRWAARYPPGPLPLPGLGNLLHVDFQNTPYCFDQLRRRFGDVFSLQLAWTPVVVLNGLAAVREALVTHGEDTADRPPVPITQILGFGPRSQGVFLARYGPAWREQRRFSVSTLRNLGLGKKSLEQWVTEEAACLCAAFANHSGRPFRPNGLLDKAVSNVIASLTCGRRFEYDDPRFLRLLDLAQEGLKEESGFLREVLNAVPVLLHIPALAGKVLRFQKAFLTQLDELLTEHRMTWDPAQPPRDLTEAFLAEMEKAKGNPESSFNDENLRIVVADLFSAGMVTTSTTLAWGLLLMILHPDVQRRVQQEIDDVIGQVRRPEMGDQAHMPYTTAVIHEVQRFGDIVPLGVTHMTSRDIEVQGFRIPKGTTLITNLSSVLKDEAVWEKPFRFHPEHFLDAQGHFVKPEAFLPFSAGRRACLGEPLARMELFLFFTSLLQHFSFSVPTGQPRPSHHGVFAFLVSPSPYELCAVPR
CYP2C19, sequence (P33261 whole entry): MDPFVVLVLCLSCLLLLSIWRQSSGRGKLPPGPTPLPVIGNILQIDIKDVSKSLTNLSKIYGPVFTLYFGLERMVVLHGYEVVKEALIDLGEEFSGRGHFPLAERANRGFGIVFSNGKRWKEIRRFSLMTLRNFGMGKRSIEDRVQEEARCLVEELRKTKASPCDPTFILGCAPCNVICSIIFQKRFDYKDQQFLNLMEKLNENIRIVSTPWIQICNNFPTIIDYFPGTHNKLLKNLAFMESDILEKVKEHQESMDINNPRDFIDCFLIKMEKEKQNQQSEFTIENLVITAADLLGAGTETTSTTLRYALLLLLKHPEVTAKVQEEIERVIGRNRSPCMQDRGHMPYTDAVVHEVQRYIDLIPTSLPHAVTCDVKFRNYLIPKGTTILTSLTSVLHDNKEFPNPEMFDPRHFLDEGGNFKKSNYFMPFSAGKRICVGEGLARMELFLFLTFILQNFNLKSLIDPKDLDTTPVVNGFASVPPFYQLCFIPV

For orientation: inhibition means the change of the read-out against control, counted positive when it falls. Consider `COC[C@H](NC(=O)c1ccn(S(C)(=O)=O)c1)C(=O)Nc1nc(-c2cccc(N3C[C@@H](C)O[C@@H](C)C3)n2)cs1` [compound of formula (I), N-((S)-1-((4-(6-(cis-2,6-dimethylmorpholino)pyridin-2-yl)thiazol-2-yl)amino)-3-methoxy-1-oxopropan-2-yl)-1-(methylsulfonyl)-1H-pyrrole-3-carboxamide], for which the IC50 on BCRP (BCRP in MDCK-II cells, read-out: Estimated IC50 using nominal concentrations) is 10.1 µM; at BCRP (BCRP, corrected, read-out: IC50 corrected for non-specific binding), 2.38 µM; on CYP2D6 it was > 30 µM. The “R-value for BCRP inhibition in the gut” value on BCRP (FDA guidance 2020, human dose of 300 mg) is > 10. Further, the “binding to 249 other ATPases in cells” value with 249 other ATPases is recorded as “little binding”. Besides, the “effect on mRNA expression of CYP2B6” value with CYP2B6 mRNA is “minimal effect”. Besides, the results for the “% Remaining of Compound of Formula (I)” value on CYP2C19 (0.1 μM) and at CYP2C19 (1 μM) were 80.5% and 95.0%, respectively. In addition, the “direct inhibitory activity (% inhibition) toward CYP2D6” value at CYP2D6 (PHLM, concentrations up to 30 μM) is on record as < 50%. Further, the inhibition at 30 µM on CYP2D6 (30 Minutes Pre-incubation with NADPH, PHLM) was found to be 9.6%; at CYP2D6 (30 Minutes Pre-incubation without NADPH, PHLM), 11.5%; against CYP2D6 (No Pre-incubation, PHLM), 13.2%. Further, the “role of CYP3A in metabolism in human liver microsomes” value with 3A4/5 is listed as “major CYP enzyme responsible”. In addition, in data set [1], the “cytotoxicity to cultured human hepatocytes” value is listed as “no evidence of cytotoxicity”.
